From the supplement of paper PMC10883282

Key:
Test in all cases: relative viability vs DMSO control (72 h) (fraction); higher = more viable cells
SK-ES-1 = tested on: SK-ES-1
Outline: (§1)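 Sarcoma cell lines in 384-well plates, seeded to reach 80–90% confluence, were given compound after 24 h and kept 72 h at 37 °C, 5% CO2, with 0.1% DMSO vehicle and a 5 µM positive control. Relative viability came from ATPLite as percent growth, averaged over up to triplicate wells. On the rescaled values, 1 equals full and 0 equals none.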

SW872 = tested on: SW872
Outline: as §1

SW1353 = tested on: SW1353
Outline: as §1

SK-LMS-1 = tested on: SK-LMS-1
Outline: as §1

A204 = tested on: A204
Outline: as §1

SW982 = tested on: SW982
Outline: as §1

HS729 = tested on: HS729
Outline: as §1

RD = tested on: RD
Outline: as §1

KHOS-240S = tested on: KHOS-240S
Outline: as §1

VA-ES-BJ = tested on: VA-ES-BJ
Outline: as §1

MES-SA = tested on: MES-SA
Outline: as §1

G401 = tested on: G401
Outline: as §1

CCN(CC)CCNC(=O)c1c(C)[nH]c(/C=C2\C(=O)Nc3ccc(F)cc32)c1C [Sunitinib]
Details | relative viability
A204, 0.00017 µM | 1.06
A204, 0.00051 µM | 1.03
A204, 0.00152 µM | 1.01
A204, 0.00457 µM | 0.96
A204, 0.01372 µM | 0.795
A204, 0.04115 µM | 0.516
A204, 0.1235 µM | 0.425
A204, 0.3704 µM | 0.363
A204, 1.111 µM | 0.318
A204, 3.333 µM | 0.206
A204, 10 µM | 0.00297
G401, 0.00017 µM | 1.01
G401, 0.00051 µM | 0.984
G401, 0.00152 µM | 0.982
G401, 0.00457 µM | 0.99
G401, 0.01372 µM | 0.999
G401, 0.04115 µM | 0.996
G401, 0.1235 µM | 0.959
G401, 0.3704 µM | 0.98
G401, 1.111 µM | 0.892
G401, 3.333 µM | 0.628
G401, 10 µM | 0.00473
HS729, 0.00017 µM | 0.928
HS729, 0.00051 µM | 0.877
HS729, 0.00152 µM | 0.835
HS729, 0.00457 µM | 0.819
HS729, 0.01372 µM | 0.799
HS729, 0.04115 µM | 0.761
HS729, 0.1235 µM | 0.731
HS729, 0.3704 µM | 0.68
HS729, 1.111 µM | 0.518
HS729, 3.333 µM | 0.268
HS729, 10 µM | 0.0045
KHOS-240S, 0.00017 µM | 1.06
KHOS-240S, 0.00051 µM | 1.06
KHOS-240S, 0.00152 µM | 1.05
KHOS-240S, 0.00457 µM | 1.05
KHOS-240S, 0.01372 µM | 1.04
KHOS-240S, 0.04115 µM | 1.03
KHOS-240S, 0.1235 µM | 0.958
KHOS-240S, 0.3704 µM | 0.875
KHOS-240S, 1.111 µM | 0.655
KHOS-240S, 3.333 µM | 0.204
KHOS-240S, 10 µM | 0.0104
MES-SA, 0.00017 µM | 0.911
MES-SA, 0.00051 µM | 0.927
MES-SA, 0.00152 µM | 0.95
MES-SA, 0.00457 µM | 0.917
MES-SA, 0.01372 µM | 0.929
MES-SA, 0.04115 µM | 0.905
MES-SA, 0.1235 µM | 0.917
MES-SA, 0.3704 µM | 0.83
MES-SA, 1.111 µM | 0.578
MES-SA, 3.333 µM | 0.305
MES-SA, 10 µM | -0.00247
RD, 0.00017 µM | 1.11
RD, 0.00051 µM | 1.11
RD, 0.00152 µM | 1.13
RD, 0.00457 µM | 1.13
RD, 0.01372 µM | 1.12
RD, 0.04115 µM | 1.11
RD, 0.1235 µM | 1.14
RD, 0.3704 µM | 1.1
RD, 1.111 µM | 0.958
RD, 3.333 µM | 0.0418
RD, 10 µM | 0.00227
SK-ES-1, 0.00017 µM | 0.997
SK-ES-1, 0.00051 µM | 0.996
SK-ES-1, 0.00152 µM | 1.08
SK-ES-1, 0.00457 µM | 1.04
SK-ES-1, 0.01372 µM | 1.02
SK-ES-1, 0.04115 µM | 0.97
SK-ES-1, 0.1235 µM | 0.931
SK-ES-1, 0.3704 µM | 0.578
SK-ES-1, 1.111 µM | 0.215
SK-ES-1, 3.333 µM | 0.018
SK-ES-1, 10 µM | 0.0034
SK-LMS-1, 0.00017 µM | 1.11
SK-LMS-1, 0.00051 µM | 1.13
SK-LMS-1, 0.00152 µM | 1.08
SK-LMS-1, 0.00457 µM | 1.07
SK-LMS-1, 0.01372 µM | 1.12
SK-LMS-1, 0.04115 µM | 1.1
SK-LMS-1, 0.1235 µM | 1.09
SK-LMS-1, 0.3704 µM | 1.02
SK-LMS-1, 1.111 µM | 0.884
SK-LMS-1, 3.333 µM | 0.706
SK-LMS-1, 10 µM | 0.0084
SW872, 0.00017 µM | 1.04
SW872, 0.00051 µM | 1.05
SW872, 0.00152 µM | 1.03
SW872, 0.00457 µM | 1.03
SW872, 0.01372 µM | 1.04
SW872, 0.04115 µM | 1.02
SW872, 0.1235 µM | 0.993
SW872, 0.3704 µM | 0.81
SW872, 1.111 µM | 0.587
SW872, 3.333 µM | 0.416
SW872, 10 µM | -0.00493
SW982, 0.00017 µM | 1.06
SW982, 0.00051 µM | 1.07
SW982, 0.00152 µM | 1.07
SW982, 0.00457 µM | 1.05
SW982, 0.01372 µM | 1.05
SW982, 0.04115 µM | 1.07
SW982, 0.1235 µM | 1.02
SW982, 0.3704 µM | 0.716
SW982, 1.111 µM | 0.413
SW982, 3.333 µM | 0.0113
SW982, 10 µM | 0.00423
SW1353, 0.00017 µM | 0.978
SW1353, 0.00051 µM | 0.994
SW1353, 0.00152 µM | 0.968
SW1353, 0.00457 µM | 0.984
SW1353, 0.01372 µM | 0.951
SW1353, 0.04115 µM | 0.972
SW1353, 0.1235 µM | 0.981
SW1353, 0.3704 µM | 1
SW1353, 1.111 µM | 0.988
SW1353, 3.333 µM | 0.017
SW1353, 10 µM | 0.0071
VA-ES-BJ, 0.00017 µM | 1.04
VA-ES-BJ, 0.00051 µM | 1.03
VA-ES-BJ, 0.00152 µM | 1.04
VA-ES-BJ, 0.00457 µM | 1.04
VA-ES-BJ, 0.01372 µM | 1.05
VA-ES-BJ, 0.04115 µM | 1.045
VA-ES-BJ, 0.1235 µM | 1.014
VA-ES-BJ, 0.3704 µM | 0.962
VA-ES-BJ, 1.111 µM | 0.745
VA-ES-BJ, 3.333 µM | 0.597
VA-ES-BJ, 10 µM | -0.00367
